ChEMBL document CHEMBL1201862, “PubChem BioAssay data set” (2004)
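Grown in 96-well plates, cells were treated for 48 hours with each compound at five concentrations. Insufficient inhibition: endpoint recorded as highest concentration tested. GI50: concentration for 50% inhibition of growth.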 Activity calls are given as the source filed them. Cut-off read from the data, not from the text of the source: active = GI50 up to about 1.1 µM and inactive = higher.

What was measured:
Assay in all cases: DTP human tumour cell line panel, 48 h
DLD-1 = system: DLD-1
LXFL 529 = system: LXFL 529
DMS-114 = system: DMS-114
M19-MEL = system: M19-MEL
DMS-273 = system: DMS-273
KM-20L2 = system: KM-20L2
XF498 = system: XF498
HOP-18 = system: HOP-18
RXF 631 = system: RXF 631

Measured: GI50

Cc1c2n(c(=O)[nH]c1=O)C1OC(CO)C(O2)C1N=[N+]=[N-] (centres undefined)
inactive: DLD-1 > 100 µM | LXFL 529 > 100 µM | DMS-114 > 100 µM | M19-MEL > 100 µM | DMS-273 > 100 µM | KM-20L2 > 100 µM

COc1ccc(-c2cnoc2-c2ccc(OC)c(OC)c2)cc1OC
inactive: DLD-1 2.12 µM | LXFL 529 1.83 µM | XF498 1.75 µM | HOP-18 6.14 µM | KM-20L2 4.66 µM
active: DMS-114 0.441 µM | M19-MEL 0.891 µM | DMS-273 0.314 µM

COC(=O)c1c(C(=O)OC)c2cc(C(=O)c3ccccc3)ccn2c1Cl
inactive: LXFL 529 30 µM | DMS-114 23.5 µM | XF498 24.3 µM | M19-MEL 32.5 µM | DMS-273 27.6 µM | KM-20L2 55 µM

O=C1C=C[C@@]23CC1C(O)C[C@H]2C=Cc1ccccc13 (some centres undefined)
inactive: DLD-1 45.6 µM | LXFL 529 > 100 µM | DMS-114 > 100 µM | XF498 > 100 µM | M19-MEL > 100 µM | KM-20L2 > 100 µM

O=C1/C(=C/c2ccccc2)CN(C(=O)C(F)(F)F)C/C1=C\c1ccccc1
inactive: DLD-1 2.07 µM | LXFL 529 1.66 µM | DMS-114 1.64 µM | HOP-18 6.82 µM | M19-MEL 1.61 µM | DMS-273 1.44 µM | KM-20L2 2.11 µM

COc1ccc(C2S/C(=C\c3cccc(OC)c3)C(=O)N2NC(=O)Cc2ccccc2)cc1 (centres undefined)
inactive: DLD-1 > 100 µM | LXFL 529 > 100 µM | HOP-18 > 100 µM | M19-MEL > 100 µM | DMS-273 > 100 µM

O=[N+]([O-])c1cccc(C2=NOC(C3CCCCC3)C2)c1 (centres undefined)
inactive: DLD-1 > 100 µM | LXFL 529 > 100 µM | DMS-114 > 100 µM | HOP-18 > 100 µM | M19-MEL > 100 µM | DMS-273 > 100 µM | RXF 631 > 100 µM

O=C(c1ccccc1)N1CCN2CCN=C(c3ccccc3)C21c1ccccc1 (centres undefined)
inactive: DLD-1 91 µM | LXFL 529 97.9 µM | DMS-114 30.5 µM | HOP-18 > 100 µM | M19-MEL 81.7 µM | DMS-273 > 100 µM | KM-20L2 70.6 µM

CCc1cc(C(=O)OC)cn1C(=N)c1ccc(Cl)cc1
inactive: DLD-1 > 100 µM | LXFL 529 > 100 µM | DMS-114 > 100 µM | XF498 > 100 µM | HOP-18 > 100 µM | M19-MEL > 100 µM | DMS-273 > 100 µM | KM-20L2 > 100 µM

O=[N+]([O-])c1ccc(Sc2c3ccccc3nc3ccccc23)cc1
inactive: DLD-1 > 100 µM | LXFL 529 > 100 µM | XF498 > 100 µM | HOP-18 > 100 µM | M19-MEL > 100 µM | RXF 631 > 100 µM | KM-20L2 > 100 µM

O=C(/C=C(\O)C(=O)O)/C=C(\O)c1ccc(Cl)cc1
inactive: DLD-1 > 100 µM | LXFL 529 > 100 µM | DMS-114 > 100 µM | XF498 > 100 µM | HOP-18 > 100 µM | M19-MEL > 100 µM | DMS-273 > 100 µM | KM-20L2 > 100 µM

Cc1cnc2c(C)ccc([N+](=O)[O-])c2c1NCCCN(C)C
inactive: DMS-114 > 100 µM | M19-MEL > 100 µM | DMS-273 > 100 µM | KM-20L2 > 100 µM

COC(=O)C(=O)C(C(=O)C=C(C)C)C(=O)C(=O)Nc1cc(C(F)(F)F)ccc1Cl (centres undefined)
inactive: DLD-1 > 100 µM | LXFL 529 > 100 µM | DMS-114 > 100 µM | XF498 > 100 µM | HOP-18 > 100 µM | DMS-273 28.7 µM | RXF 631 > 100 µM | KM-20L2 > 100 µM

O=C1c2c(O)cccc2C(C(=O)CCCCCC(=O)C2c3cccc(O)c3C(=O)c3c(O)cccc32)c2cccc(O)c21
active: LXFL 529 0.697 µM | DMS-114 0.512 µM | XF498 0.46 µM | M19-MEL 0.857 µM
inactive: DLD-1 1.12 µM | HOP-18 1.16 µM | DMS-273 4.98 µM | RXF 631 1.26 µM | KM-20L2 5.51 µM

O=C1c2ccccc2C(=O)C1(Cl)C1(S(=O)(=O)O)c2ccccc2-c2ccccc21
inactive: DLD-1 > 100 µM | LXFL 529 > 100 µM | DMS-114 > 100 µM | XF498 > 100 µM | HOP-18 > 100 µM | M19-MEL > 100 µM | DMS-273 > 100 µM | KM-20L2 > 100 µM

CC(=O)NC1=C(NCCN(C)C)C(=O)c2ccccc2C1=O
inactive: DLD-1 14.3 µM | LXFL 529 15 µM | XF498 13.7 µM | M19-MEL 7.6 µM | DMS-273 11.7 µM | KM-20L2 16.4 µM

CCN(CC)C(=O)CNC(=O)OC(C)(C)C
inactive: DLD-1 > 100 µM | DMS-114 > 100 µM | M19-MEL > 100 µM | DMS-273 > 100 µM | KM-20L2 > 100 µM

C=CC1C(OC2OC(CO)C(O)C(O)C2O)OC=C(C(=O)OC)C1CC=O (centres undefined)
inactive: DLD-1 > 100 µM | LXFL 529 > 100 µM | HOP-18 > 100 µM | M19-MEL > 100 µM | RXF 631 > 100 µM | KM-20L2 > 100 µM

Cc1nc2c(o1)/C(=N\c1ccccc1)c1ccccc1C2=O
inactive: DLD-1 12.9 µM | LXFL 529 11.9 µM | DMS-114 3.3 µM | XF498 4.02 µM | HOP-18 5.42 µM | M19-MEL 1.86 µM | DMS-273 10.2 µM | KM-20L2 17.4 µM

Cc1cc(N(CCC#N)CCC#N)ccc1/N=N/c1ccc(Br)cc1
inactive: DLD-1 > 42.7 µM | LXFL 529 > 48.8 µM | DMS-114 20.2 µM | XF498 2.22 µM | HOP-18 > 35 µM | M19-MEL > 53.3 µM | DMS-273 17.8 µM | RXF 631 11.1 µM | KM-20L2 3.61 µM

COc1ccc(C(=O)O)c2c(=O)c3ccccc3[nH]c12
inactive: LXFL 529 > 100 µM | XF498 > 100 µM | M19-MEL > 100 µM | DMS-273 > 100 µM | KM-20L2 > 100 µM

CC(CN(C)C)C(=O)c1ccccc1 (centres undefined)
inactive: DLD-1 8.97 µM | LXFL 529 18 µM | DMS-114 26.6 µM | XF498 21.3 µM | HOP-18 > 100 µM | M19-MEL 19.1 µM | DMS-273 > 100 µM | RXF 631 > 86.3 µM | KM-20L2 > 51.8 µM

CCCCCCCCOCC(COC(=O)CCCCCCC)OC(=O)CCCCCCC (centres undefined)
inactive: DLD-1 > 100 µM | LXFL 529 > 100 µM | DMS-114 > 100 µM | HOP-18 > 100 µM | M19-MEL > 100 µM | DMS-273 > 100 µM | RXF 631 > 100 µM | KM-20L2 > 100 µM

CC1=CCC(O)C=CC(C)C(O)C(C)C=C(C)C(=O)c2c(O)c(C)cc3c2C(=O)C(N)=C(NC(=O)/C=C\C=C/C=CC(C)C(O)CC1=O)C3=O (centres undefined)
inactive: DLD-1 > 100 µM | LXFL 529 27.8 µM | DMS-114 > 100 µM | XF498 > 100 µM | M19-MEL > 100 µM | DMS-273 > 100 µM | KM-20L2 > 100 µM

CC(=O)c1cccc(NC(=O)C(=O)Nn2c(N)nnc2N)c1
inactive: DLD-1 > 100 µM | LXFL 529 > 100 µM | DMS-114 > 100 µM | XF498 > 100 µM | HOP-18 > 100 µM | M19-MEL > 100 µM | DMS-273 > 100 µM | KM-20L2 > 100 µM

COc1ccc2nc3cc(Cl)ccc3c(NCCCN(CCCl)CCCl)c2c1
inactive: HOP-18 2.64 µM
active: DLD-1 0.233 µM | LXFL 529 0.0166 µM | DMS-114 < 0.01 µM | XF498 < 0.01 µM | M19-MEL 0.0443 µM | DMS-273 0.0161 µM | RXF 631 0.0118 µM | KM-20L2 0.0339 µM
